Consider eight compounds from patent US20220202872A1, “METHOD FOR GENERATING A THREE-DIMENSIONAL NEUROMUSCULAR ORGANOID IN VITRO” (MAX-DELBRÜCK-CENTRUM FÜR MOLEKULARE MEDIZIN IN DER …, priority 2020, published 2022).

Entries after “also recorded” stand apart in the source; their conditions may differ.

For assay [1], the system named is NMOs. In words: Microelectrode array (MEA) recording of whole organoids. To be noted: for local (single electrode) firings / synchronous network activity (paired electrode spikes) / rhythmic, central pattern generator-like activity: NMDA and 5-HT applied together; for local (single electrode) firings / synchronous network activity (paired electrode spikes): day 50, FIG. 6G legend: 50 uM NMDA/40 uM 5-HT; for electrical activity triggered by NMDA/5-HT cocktail: cocktail of NMDA (10 uM) and 5-HT (40 uM), applied together; for suppression of electrical activity: APV 50 uM and CNQX 40 uM applied together, glutamate receptor inhibitors. In kind it is cell-based, human.

The subject of assay [2] is NMOs. The assay is described as follows: Contraction analysis of neuromuscular organoids before and after curare. To be noted: curare 10 uM; before vs after treatment. In kind it is cell-based, human. As for the experimental part:
To investigate the functionality of NMJs, the contractile activity of NMOs was measured before and after treatment with Curare (10 uM), a blocker of AChRs.
Video segments of equal length were recorded using a bright-field microscope (DMI1, Leica) in 3 different regions of the same organoid using 20× zoom. To quantify muscle contractions, each movie was analyzed separately where each visible contraction was counted and then averaged for the whole organoid.
To analyze and map organoid muscular contraction, bright field time series images were automatically thresholded using ImageJ software to identify organoid border. A binary stack was created and contractile regions were visually identified. Regions of interest were defined and variations of organoid area (in pixel), used as a proxy of physical contraction, were plotted over the time series.

Take `NCCc1c[nH]c2ccc(O)cc12` [5-HT, Serotonin]: in assay [1], the “local (single electrode) firings” value is on record as “increased single firings; also recorded: notable increase”, the “synchronous network activity (paired electrode spikes)” value is on record as “increase in paired electrode spikes; also recorded: dramatic increase” and the “electrical activity triggered by NMDA/5-HT cocktail” value is on record as “instantaneously triggered strong activity”. In assay [1] (day 50 NMOs), the “rhythmic, central pattern generator-like activity” value was “central pattern generator-like activity; also recorded: became rhythmic; also recorded: produced rhythmic bursts of electrical activity”.

With `N[C@@H](CCCP(=O)(O)O)C(=O)O` [APV], in assay [1], the “suppression of electrical activity” value is reported as “reversibly suppressed nearly all electrical activity”.

Take `N#Cc1cc2[nH]c(=O)c(=O)[nH]c2cc1[N+](=O)[O-]` [CNQX]: the “suppression of electrical activity” value in assay [1] was “reversibly suppressed nearly all electrical activity”.

Regarding `CN[C@H](CC(=O)O)C(=O)O` [NMDA], in assay [1], the “local (single electrode) firings” value is “increased single firings; also recorded: notable increase”, the “synchronous network activity (paired electrode spikes)” value was “increase in paired electrode spikes; also recorded: dramatic increase” and the “electrical activity triggered by NMDA/5-HT cocktail” value was “instantaneously triggered strong activity”. In assay [1] (day 50 NMOs), the “rhythmic, central pattern generator-like activity” value is “central pattern generator-like activity; also recorded: became rhythmic; also recorded: produced rhythmic bursts of electrical activity”.

`CC(=O)OCC[N+](C)(C)C` [acetylcholine]: the “increase of electrical activity” value in assay [1] (acetylcholine 10 uM stimulation, day 50 NMOs) is listed as “approximately 10 fold”.

Consider `N[C@@H](CCC(=O)O)C(=O)O` [glutamate], for which the “increase of spontaneous electrical activity” value in assay [1] (acute glutamate 50 uM, day 30 and day 50 organoids) is reported as “approximately 12 fold”.

Regarding `NC1=N[C@H](O)[C@H]2[C@H]3O[C@]4(O)O[C@@H]([C@@H](O)[C@@]2(N1)[C@@H]4O)[C@]3(O)CO` [tetrodotoxin], the “suppression of NMDA/5-HT-triggered activity” value in assay [1] is reported as “reversibly suppressed”.

As for curare, in assay [2], the “contraction of the skeletal muscles (contractile activity of NMOs)” value is recorded as “blocked the contraction; also recorded: organoid relaxation”. Besides, in assay [1] (curare 10 uM added after acetylcholine 10 uM, day 50 NMOs), the “block of acetylcholine-stimulated electrical activity” value is “rapidly and reversibly blocked”.
